Source: article PMC7248705, “A Pharmacokinetic and Pharmacodynamic Evaluation of the Anti-Hepatocellular Carcinoma Compound 4-N-Carbobenzoxy-gemcitabine (Cbz-dFdC)” (Molecules, 2020)
Entries after “also recorded” stand apart in the source; their conditions may differ.

Experiments:
[1] = Enzymatic kinetics in vitro, rat kidney S9; format: in vitro ADME; conditions: 37 °C, 5–200 μM Cbz-dFdC
Method: (§1) The SD rats without any treatment were sacrificed after adapting to the environment. Blank blood, the liver, the kidney, and the intestine were collected and treated as described in Section 4.4. Part of the homogenate was removed for centrifugation for 20 min at 9000× g at 4 °C, and the supernatant was obtained as tissue S9. The tissue homogenate and S9 were diluted to […] after the protein concentration was determined by the BCA kit (Abcam, Cambridge, MA, USA). Each matrix consisted of 45 uL of the matrix mixed with 5 uL of the drug dissolved in normal saline solution for about 3 min, followed by incubation at 37 °C in a water bath. Then, acetonitrile containing the internal standard was added to terminate the reaction. Human tissue S9 and human CES1 recombinase purchased from the Ruid Liver Disease Research Co., Ltd. (Shanghai, China) were incubated under the same conditions. An enzyme kinetic study was obtained from the matrix following incubation at 37 °C for 30 min with 5, 10, 20, 50, 100, or 200 μM of Cbz-dFdC. We estimated the parameters and simulated curves according to the Eadie–Hofstee method.

[2] = Enzymatic kinetics in vitro, rat liver homogenate; format: in vitro ADME; conditions: 37 °C, 30 min, 5–200 μM Cbz-dFdC
Method: as §1

[3] = Enzymatic kinetics in vitro, rat liver S9; format: in vitro ADME; conditions: 37 °C, 5–200 μM Cbz-dFdC
Method: as §1

[4] = system: human HepG2 cell line; experiment: CCK-8 tumor cell growth inhibition assay; format: cell-based; conditions: HepG2, CCK-8, concentration-dependent
Method: The cells were cultured on a 96-well plate for 4 h for each well. Then, dimethyl sulfoxide solution containing 0.1–100 mM of Cbz-dFdC and dFdC was diluted 1000 times with the medium before administration. A total of 200 uL of medium containing Cbz-dFdC and dFdC was added per well (n = 6). The medium with drugs was discarded, and 10% CCK-8 solution was added. Then, the absorbance value was read at a wavelength of 450 nm after incubation at 37 °C, for 30 min. The drug concentration of Cbz-dFdC and dFdC in cell were determined by a previously established method.

[5] = Enzymatic kinetics in vitro, human liver S9; format: in vitro ADME
Method: as §1

[6] = Tissue distribution (liver, kidney, intestine); format: in vivo, SD rats; conditions: rats
Method: In order to investigate the drug distribution in different tissues and the relationship between CES1 activity and tissue concentration, we conducted tissue distribution experiments. The SD rats were divided into six groups (n = 6 for each group). After a single intragastric administration of Cbz-dFdC (22 mg/kg) and a single injected administration of dFdC (15 mg/kg), the SD rats were sacrificed at 0.5 h, 1.5 h, and 4 h, and the liver, kidney, and intestine were collected. The liver was perfused with ice-cold normal saline and then removed, followed by ice-cold normal saline cleaning. The kidney and intestine were directly removed and then washed with ice-cold normal saline. All of the above operations were carried out on ice, and the removed tissue was stored in an ice bath. The liver, kidney, and intestine were cut and crushed, homogenized with an appropriate amount of phosphate buffer by a homogenizer, and then diluted 5 times with ice-cold PBS buffer (in an ice bath). The tissue homogenates were determined with a BCA kit for protein concentration, a CES1 kit for CES1 activity, and UFLC–MS/MS for drug tissue concentration after pretreatment; the pretreatment method was reported previously.

[7] = Enzymatic kinetics in vitro, rat kidney homogenate; format: in vitro ADME; conditions: 37 °C, 30 min, 5–200 μM Cbz-dFdC
Method: as §1

[8] = SD, read-out: Km, disappearance of Cbz-dFdC
[9] = SD, 30 min, read-out: Clint, disappearance of Cbz-dFdC
[10] = read-out: Km, appearance of dFdC
[11] = read-out: Km, disappearance of Cbz-dFdC
[12] = SD, read-out: Clint, disappearance of Cbz-dFdC
[13] = Human Liver S9, 37 °C, 30 min, 5–200 μM Cbz-dFdC

Q: Which results are given for O=C(Nc1ccn([C@@H]2O[C@H](CO)[C@@H](O)C2(F)F)c(=O)n1)OCc1ccccc1 [Cbz-dFdC, 4-N-carbobenzoxy-gemcitabine]?
A: Vmax, appearance of dFdC ([1]; 30 min): 50.2 nmol/min/mg pro; Vmax, disappearance of Cbz-dFdC ([1]; 30 min): 206.5 nmol/min/mg pro; Km at 30 min [1, 8]: 269 µM; microsomal CLint [1, 9]: 770 µL/min/mg; Vmax, appearance of dFdC [2]: 86.8 nmol/min/mg pro; Vmax, disappearance of Cbz-dFdC [2]: 411.6 nmol/min/mg pro; Km [2, 10]: 96.4 µM; Km [2, 11]: 190 µM; microsomal CLint [2, 12]: 2170 µL/min/mg; Vmax, appearance of dFdC ([3]; 30 min): 49.5 nmol/min/mg pro; Vmax, disappearance of Cbz-dFdC ([3]; 30 min): 169.6 nmol/min/mg pro; Km at 30 min [3, 8]: 96.3 µM; microsomal CLint [3, 9]: 1760 µL/min/mg; cytotoxicity / tumor cell growth inhibition [4]: certain cytotoxicity; also recorded: lower than that of an equimolar dose of dFdC; Vmax, appearance of dFdC [5, 13]: 480.6 nmol/min/mg pro; Vmax, disappearance of Cbz-dFdC [5, 13]: 1491.3 nmol/min/mg pro; microsomal CLint ([5]; Human Liver S9, 37 °C, 30 min, 5–200 μM Cbz-dFdC, read-out: Clint, disappearance of Cbz-dFdC): 13800 µL/min/mg; Km at 30 min ([5]; Human Liver S9, 37 °C, 30 min, 5–200 μM Cbz-dFdC, read-out: Km, disappearance of Cbz-dFdC): 108 µM; stability in human liver S9 ([5]; human liver S9, easily hydrolyzed into dFdC): unstable; Cbz-dFdC level in the intestine versus other tissues ([6]; after i.g. Cbz-dFdC 22 mg/kg, liver, kidney, intestine, especially at 0.5 h): significantly higher than that in the other tissues; also recorded: mainly distributed in the intestine; tissue penetration ([6]; drug concentration in tissue lower than plasma concentration): weak tissue penetration; Vmax, appearance of dFdC [7]: 44.3 nmol/min/mg pro; Vmax, disappearance of Cbz-dFdC [7]: 162.7 nmol/min/mg pro; Km [7, 10]: 48.9 µM; Km [7, 11]: 148 µM; microsomal CLint [7, 12]: 1100 µL/min/mg
